Measured values: ChEMBL document CHEMBL4359901, “Cyclic enaminone as new chemotype for selective cyclooxygenase-2 inhibitory, anti-inflammatory, and analgesic activities” (Eur J Med Chem, 2019)
pIC50: −log10 of the molar value.

Legend:
[1] = molecular target: Prostaglandin G/H synthase 1 (Ovis aries) (UniProt P05979); assay: Inhibition of ovine COX1 assessed as reduction in PGF2alpha at 10 uM incubated for 2 mins using arachidonic acid as substrate by ELISA relative to control
[2] = molecular target: Prostaglandin G/H synthase 2 (Homo sapiens) (UniProt P35354); assay: Inhibition of recombinant human COX2 assessed as reduction in PGF2alpha at 10 uM incubated for 2 mins using arachidonic acid as substrate by ELISA relative to control
[3] = Selectivity index, ratio of IC50 for inhibition of ovine COX1 to IC50 for inhibition of recombinant human COX2
[4] = test system: Rattus norvegicus; assay: Antiinflammatory activity in Wistar albino rat assessed as reduction in carrageenan-induced paw edema at 25 mg/kg, ip measured after 1 hr by plethysmometric method (reference value: 1.43 +/- 0.19 ml); type: functional
[5] = test system: Rattus norvegicus; assay: Antiinflammatory activity in Wistar albino rat assessed as reduction in carrageenan-induced paw edema at 25 mg/kg, ip measured after 2 hrs by plethysmometric method (reference value: 1.58 +/- 0.21 ml); type: functional
[6] = test system: Rattus norvegicus; assay: Antiinflammatory activity in Wistar albino rat assessed as reduction in carrageenan-induced paw edema at 25 mg/kg, ip measured after 3 hrs by plethysmometric method (reference value: 1.75 +/- 0.33 ml); type: functional
[7] = test system: Rattus norvegicus; assay: Antiinflammatory activity in Wistar albino rat assessed as reduction in carrageenan-induced paw volume at 12.5 mg/kg, ip measured after 1 hr by plethysmometric method (reference value: 1.43 +/- 0.19 ml); type: functional
[8] = test system: Rattus norvegicus; assay: Antiinflammatory activity in Wistar albino rat assessed as reduction in carrageenan-induced paw volume at 12.5 mg/kg, ip measured after 2 hrs by plethysmometric method (reference value: 1.58 +/- 0.21 ml); type: functional
[9] = test system: Rattus norvegicus; assay: Antiinflammatory activity in Wistar albino rat assessed as reduction in carrageenan-induced paw volume at 12.5 mg/kg, ip measured after 3 hrs by plethysmometric method (reference value: 1.75 +/- 0.33 ml); type: functional
[10] = test system: Rattus norvegicus; assay: Analgesic activity in Wistar albino rat assessed as reaction time at 25 mg/kg, ip measured after 30 mins for 15 secs by hot plate method (reference value: 4.21 +/- 0.41 sec); type: functional
[11] = test system: Rattus norvegicus; assay: Analgesic activity in Wistar albino rat assessed as reaction time at 25 mg/kg, ip measured after 60 mins for 15 secs by hot plate method (reference value: 4.67 +/- 0.52 sec); type: functional
[12] = test system: Rattus norvegicus; assay: Analgesic activity in Wistar albino rat assessed as reaction time at 25 mg/kg, ip measured after 120 mins for 15 secs by hot plate method (reference value: 4.32 +/- 0.52 sec); type: functional
[13] = test system: Rattus norvegicus; assay: Analgesic activity in Wistar albino rat assessed as reaction time at 25 mg/kg, ip measured after 180 mins for 15 secs by hot plate method (reference value: 3.87 +/- 0.38 sec); type: functional
[14] = test system: Rattus norvegicus; assay: Analgesic activity in Wistar albino rat assessed as reaction time at 12.5 mg/kg, ip measured after 30 mins for 15 secs by hot plate method (reference value: 4.21 +/- 0.41 sec); type: functional
[15] = test system: Rattus norvegicus; assay: Analgesic activity in Wistar albino rat assessed as reaction time at 12.5 mg/kg, ip measured after 60 mins for 15 secs by hot plate method (reference value: 4.67 +/- 0.52 sec); type: functional
[16] = test system: Rattus norvegicus; assay: Analgesic activity in Wistar albino rat assessed as reaction time at 12.5 mg/kg, ip measured after 120 mins for 15 secs by hot plate method (reference value: 4.32 +/- 0.52 sec); type: functional
[17] = test system: Rattus norvegicus; assay: Analgesic activity in Wistar albino rat assessed as reaction time at 12.5 mg/kg, ip measured after 180 mins for 15 secs by hot plate method (reference value: 3.87 +/- 0.38 sec); type: functional
[18] = Antioxidant activity assessed as DPPH radical scavenging activity at 10 uM/ml incubated for 20 mins by spectrophotometric method relative to control; type: functional
[19] = Antioxidant activity assessed as DPPH radical scavenging activity at 20 uM/ml incubated for 20 mins by spectrophotometric method relative to control; type: functional
[20] = Antioxidant activity assessed as DPPH radical scavenging activity at 40 uM/ml incubated for 20 mins by spectrophotometric method relative to control; type: functional
[21] = Antioxidant activity assessed as DPPH radical scavenging activity at 60 uM/ml incubated for 20 mins by spectrophotometric method relative to control; type: functional
[22] = Antioxidant activity assessed as DPPH radical scavenging activity at 80 uM/ml incubated for 20 mins by spectrophotometric method relative to control; type: functional
[23] = Antioxidant activity assessed as DPPH radical scavenging activity at 100 uM/ml incubated for 20 mins by spectrophotometric method relative to control; type: functional
[24] = Antioxidant activity assessed as DPPH radical scavenging activity incubated for 20 mins by spectrophotometric method; type: functional
[25] = test system: Rattus norvegicus; assay: Antiinflammatory activity in Sprague-Dawley rat model of carrageenan-induced thermal hyperalgesia assessed as paw withdrawal latency time at 50 mg/kg, po administered 1 hr prior to carrageenan challenge and measured after 1 hr by planter test (reference value: 8.88 +/- 0.52 sec); type: functional
[26] = test system: Rattus norvegicus; assay: Antiinflammatory activity in Sprague-Dawley rat model of carrageenan-induced thermal hyperalgesia assessed as paw withdrawal latency time at 50 mg/kg, po administered 1 hr prior to carrageenan challenge and measured after 2 hrs by planter test (reference value: 6.17 +/- 0.58 sec); type: functional
[27] = test system: Rattus norvegicus; assay: Antiinflammatory activity in Sprague-Dawley rat model of carrageenan-induced thermal hyperalgesia assessed as paw withdrawal latency time at 50 mg/kg, po administered 1 hr prior to carrageenan challenge and measured after 3 hrs by planter test (reference value: 4.13 +/- 0.45 sec); type: functional
[28] = test system: Rattus norvegicus; assay: Antiinflammatory activity in Sprague-Dawley rat model of carrageenan-induced thermal hyperalgesia assessed as paw withdrawal latency time at 50 mg/kg, po administered 1 hr prior to carrageenan challenge and measured after 4 hrs by planter test (reference value: 5.47 +/- 0.84 sec); type: functional
[29] = test system: Rattus norvegicus; assay: Antiinflammatory activity in Sprague-Dawley rat model of carrageenan-induced thermal hyperalgesia assessed as paw withdrawal latency time at 50 mg/kg, po administered 1 hr prior to carrageenan challenge and measured after 5 hrs by planter test (reference value: 7.5 +/- 0.74 sec); type: functional
[30] = test system: Rattus norvegicus; assay: Antiinflammatory activity in Sprague-Dawley rat model of carrageenan-induced thermal hyperalgesia assessed as paw withdrawal latency pressure at 50 mg/kg, po administered 1 hr prior to carrageenan challenge and measured after 1 hr by Von-frey test (reference value: 159.88 +/- 4.66 g); type: functional
[31] = test system: Rattus norvegicus; assay: Antiinflammatory activity in Sprague-Dawley rat model of carrageenan-induced thermal hyperalgesia assessed as paw withdrawal latency pressure at 50 mg/kg, po administered 1 hr prior to carrageenan challenge and measured after 2 hrs by Von-frey test (reference value: 146.47 +/- 5.12 g); type: functional
[32] = test system: Rattus norvegicus; assay: Antiinflammatory activity in Sprague-Dawley rat model of carrageenan-induced thermal hyperalgesia assessed as paw withdrawal latency pressure at 50 mg/kg, po administered 1 hr prior to carrageenan challenge and measured after 3 hrs by Von-frey test (reference value: 31.65 +/- 3.33 g); type: functional
[33] = test system: Rattus norvegicus; assay: Antiinflammatory activity in Sprague-Dawley rat model of carrageenan-induced thermal hyperalgesia assessed as paw withdrawal latency pressure at 50 mg/kg, po administered 1 hr prior to carrageenan challenge and measured after 3 hrs by Von-frey test (reference value: 146.61 +/- 1.58 g); type: functional
[34] = test system: Rattus norvegicus; assay: Antiinflammatory activity in Sprague-Dawley rat model of carrageenan-induced thermal hyperalgesia assessed as paw withdrawal latency pressure at 50 mg/kg, po administered 1 hr prior to carrageenan challenge and measured after 5 hrs by Von-frey test (reference value: 169.58 +/- 4.26 g); type: functional
[35] = test system: Rattus norvegicus; assay: Antiinflammatory activity in Sprague-Dawley rat model of carrageenan-induced thermal hyperalgesia assessed as paw withdrawal latency pressure at 50 mg/kg, po administered 1 hr prior to carrageenan challenge and measured after 2 hrs by Randall-Selitto test (reference value: 231.13 +/- 3.15 g); type: functional
[36] = test system: Rattus norvegicus; assay: Antiinflammatory activity in Sprague-Dawley rat model of carrageenan-induced thermal hyperalgesia assessed as paw withdrawal latency pressure at 50 mg/kg, po administered 1 hr prior to carrageenan challenge and measured after 3 hrs by Randall-Selitto test (reference value: 176.84 +/- 8.1 g); type: functional
[37] = test system: Rattus norvegicus; assay: Antiinflammatory activity in Sprague-Dawley rat model of carrageenan-induced thermal hyperalgesia assessed as paw withdrawal latency pressure at 50 mg/kg, po administered 1 hr prior to carrageenan challenge and measured after 3 hrs by Randall-Selitto test (reference value: […] g); type: functional
[38] = test system: Rattus norvegicus; assay: Antiinflammatory activity in Sprague-Dawley rat model of carrageenan-induced thermal hyperalgesia assessed as paw withdrawal latency pressure at 50 mg/kg, po administered 1 hr prior to carrageenan challenge and measured after 1 hr by Randall-Selitto test (reference value: 246.55 +/- 1.05 g); type: functional

Q: Which inhibition [1] does the source give for `O=C1C=C(Nc2cc(Cl)ccc2F)CCC1` here?
A: 32%

Q: What about the inhibition [2] of the same compound?
A: 47.4%

Q: For `CC(=O)c1ccc(NC2=CC(=O)CCC2)cc1`, which inhibition [1] is on record?
A: 65.5%

Q: What about the inhibition [2] of the same compound?
A: 41.9%

Q: For `CC1(C)CC(=O)C=C(Nc2ccc(F)cc2)C1`, which inhibition [1] is on record?
A: 34%

Q: What about the inhibition [2] of the same compound?
A: 44.5%

Q: Which inhibition [1] does the source give for `O=C1C=C(Nc2ccccc2)CCC1` here?
A: 19.7%

Q: And the inhibition [2]?
A: 41.9%

Q: Which Ratio IC50 [3] does the source give for `O=C1C=C(Nc2ccc(Cl)cc2)CCC1` here?
A: 74.1

Q: What about the Activity [4] of the same compound?
A: 1.29 mL

Q: What about the Activity [5] of the same compound?
A: 1.24 mL

Q: What about the Activity [6] of the same compound?
A: 1.19 mL

Q: What about the Activity [7] of the same compound?
A: 1.23 mL

Q: What about the Activity [8] of the same compound?
A: 1.22 mL

Q: And the Activity [9]?
A: 1.23 mL

Q: And the Time [10]?
A: 5.48 s

Q: And the Time [11]?
A: 7.72 s

Q: And the Time [12]?
A: 8.83 s

Q: And the Time [13]?
A: 8.2 s

Q: And the Time [14]?
A: 5.34 s

Q: And the Time [15]?
A: 7.09 s

Q: What about the Time [16] of the same compound?
A: 7.16 s

Q: And the Time [17]?
A: 7.24 s

Q: What about the Activity [18] of the same compound?
A: 12.7%

Q: And the Activity [19]?
A: 24%

Q: What about the Activity [20] of the same compound?
A: 33.7%

Q: And the Activity [21]?
A: 46.7%

Q: And the Activity [22]?
A: 61.3%

Q: And the Activity [23]?
A: 78.2%

Q: And the pIC50 [24]?
A: 4.15

Q: And the inhibition [1]?
A: 12.9%

Q: What about the inhibition [2] of the same compound?
A: 88.6%

Q: Which inhibition [1] does the source give for `O=C1C=C(NCc2ccccc2)CCC1` here?
A: 24.2%

Q: And the inhibition [2]?
A: 40.5%

Q: Which inhibition [1] does the source give for `N#Cc1ccc(NC2=CC(=O)CCC2)cc1` here?
A: 46.5%

Q: What about the inhibition [2] of the same compound?
A: 47.1%

Q: For `O=C1O[C@H]([C@@H](O)CO)C(O)=C1O` [ASCORBIC ACID], which Activity [18] is on record?
A: 27.1%

Q: What about the Activity [19] of the same compound?
A: 50.8%

Q: What about the Activity [20] of the same compound?
A: 74.7%

Q: What about the Activity [21] of the same compound?
A: 91.1%

Q: And the Activity [22]?
A: 100%

Q: And the pIC50 [24]?
A: > 4.70

Q: For `CC1(C)CC(=O)C=C(Nc2ccc(Cl)cc2)C1`, which inhibition [1] is on record?
A: 16.4%

Q: What about the inhibition [2] of the same compound?
A: 42.6%

Q: Which inhibition [1] does the source give for `COc1ccc(NC2=CC(=O)CCC2)cc1` here?
A: 10.7%

Q: What about the inhibition [2] of the same compound?
A: 36.6%

Q: For `Cc1ccc(-c2cc(C(F)(F)F)nn2-c2ccc(S(N)(=O)=O)cc2)cc1` [CELECOXIB], which Activity [4] is on record?
A: 1.3 mL

Q: And the Activity [5]?
A: 1.23 mL

Q: And the Activity [6]?
A: 1.16 mL

Q: What about the Activity [7] of the same compound?
A: 1.34 mL

Q: And the Activity [8]?
A: 1.38 mL

Q: What about the Activity [9] of the same compound?
A: 1.36 mL

Q: And the Time [10]?
A: 6.34 s

Q: What about the Time [11] of the same compound?
A: 8.93 s

Q: What about the Time [12] of the same compound?
A: 12.08 s

Q: And the Time [13]?
A: 10.87 s

Q: And the Time [14]?
A: 5.75 s

Q: And the Time [15]?
A: 8.93 s

Q: And the Time [16]?
A: 10.98 s

Q: And the Time [17]?
A: 9.92 s

Q: And the Time [25]?
A: 11.54 s

Q: What about the Time [26] of the same compound?
A: 10.98 s

Q: What about the Time [27] of the same compound?
A: 9.48 s

Q: And the Time [28]?
A: 8.36 s

Q: And the Time [29]?
A: 9.22 s

Q: What about the Activity [30] of the same compound?
A: 176.45 g

Q: And the Activity [31]?
A: 176.63 g

Q: And the Activity [32]?
A: 176.87 g

Q: What about the Activity [33] of the same compound?
A: 176.87 g

Q: And the Activity [34]?
A: 180.82 g

Q: And the Activity [35]?
A: 273.46 g

Q: And the Activity [36]?
A: 270.66 g

Q: And the Activity [37]?
A: 269.55 g

Q: And the Activity [38]?
A: 270.89 g

Q: For `O=C1C=C(Nc2ccc(Cl)cc2)CC1`, which inhibition [1] is on record?
A: 23.7%

Q: And the inhibition [2]?
A: 33.5%

Q: What does the source list for `O=C1C=C(NCc2ccco2)CC1`?
A: inhibition [1]: 30.5%; inhibition [2]: 41.4%
